Results as given in patent publication US20040235717A1, “Suppression of androgen receptor transactivation through new pathways to ar and ar coactivators and repressors” (priority 2001, published 2004).

Key:
[1] = system: wtAR, mtARt877a, PR, VDR, ER transactivation; assay: Steroid receptor transactivation with Smad3 in DU145 cells (wtAR, mtARt877a, PR, VDR, ER); assay type: cell-based, human
[2] = system: wtAR, mtARt877a, PR, VDR, ER transactivation; conditions: previous reports; cited from earlier work
Akt / AR phosphorylation = assay: Akt activation and in vivo AR phosphorylation in COS-1 cells; assay type: cell-based
Procedure: 14. […] COS-1 cells were pretreated with ethanol or 20 μM LY294002 for 30 min, followed by treatment with 100 ng/ml IGF-1 for 30 min. The total cell lysates were immunoprecipitated by anti-Akt antibody (New England Biolabs). The immunocomplex was subjected to SDS-PAGE, followed by immunoblot with phospho-Akt (S473) antibody or Akt antibody. (B) IGF-1 phosphorylates AR in vivo via Akt. COS-1 cells were cultured in [^32P]-PO4-containing medium. AR immunocomplex was subjected to SDS-PAGE followed by autoradiography. Immunobloting confirmed equivalent amounts of AR in immunocomplex. (C) cAkt, but not dAkt, phosphorylates wtAR, but not mtAR S210A and mtAR S790A in vivo. COS-1 cells were transfected with wtAR, mtAR S210A, or mtAR S790A in combination with PCDNA3 vector, cAkt, or dAkt. After 24 h transfection, cells were labeled with [^32P]-PO4 for 4 h. (D) Suppression of AR transactivation by Akt in a dose-dependent manner. […] Transactivation was measured by CAT activity using MMTV-CAT as a reporter. (E) mtAR S210A is resistant to Akt suppressive effect on AR transactivation. DU145 cells were transfected with plasmids encoding wtAR, mtAR S210A or mtAR S790A in presence of cAkt or dAkt for 24 h. Ligand treatment and AR transactivation were performed as previously described. The data are means±s.d. from three independent experiments.
282. […]

LNCaP cells = assay: DHT/TPA-induced apoptosis in LNCaP cells, TUNEL assay; assay type: cell-based
Procedure: (§1) 18. […] (A) Akt suppressed androgen/AR-induced p21 promoter activity. […] (B) Androgen/AR-induced PC-3(AR)6 apoptosis and p21 protein expression was blocked by Akt PC-3(AR)6 was transfected with pCDNA3, cAkt, or dAkt, as indicated, for 16 h. […] (C) AR-induced p21 protein expression was enhanced by dAkt in LNCaP cells. […] LNCaP stable transfection with dAkt was confirmed by western blot assay using phospho-Akt (Ser473) antibody. […] TPA was then added for another 24 h and cell apoptosis was determined by TUNEL assay. […] IGF-1 was added for another 30 min, followed by 10 nM TPA treatment for another 24 h. The apoptosis was determined by TUNEL assay. The data are means±s.d. from three independent experiments.
(§2) 281. The TUNEL assay was performed to measure the cell apoptosis according to the standard procedures (Oncogene Research Products). At least 200 cells were scored for each sample and the data are means±s.d. from three independent experiments.

[3] = system: PC-3(AR)2, PC-3(AR)6, SAR-91 cells; assay: Androgen/AR-induced apoptosis, TUNEL assay in PC-3(AR)2, PC-3(AR)6 and SAR-91 cells; assay type: cell-based; conditions: HF 5 μM, IGF-1 100 ng/ml, DHT 10 nM, 3 days
Source text: 17. […] (A) PC-3(AR)2 and PC-3(AR)6 expressed AR protein. PC-3 cells were stably transfected with AR, followed by selection with hygromycin B, and confirmed by western blotting using AR antibody NH27, while LNCaP was used as a positive control. (B) Androgen/AR-induced apoptosis in PC-3(AR)2, PC-3(AR)6, and SAR-91 were inhibited by PI(3)K/Akt pathway. […] The data are means±s.d. from three independent experiments.
as §1, §2

[4] = system: AR-mediated transactivation; assay: AR-mediated transactivation with TGF-β, MMTV-CAT in DU145 and PC-3 cells; assay type: cell-based, human
Procedure: 19. […] (B). […] In the right panel, a fixed amount of TGF-β1 (10 ng/ml) was added into transfected PC-3 cells with increasing amounts of specific TGF-β1 neutralizing antibody. (C), PC-3(AR)2 cells stably transfected with AR were overexpressed with TGF-β type I (TβRI) or type II (TβRII)receptor or constitutively active TGF-β type I receptor (TβRI-T204D) as indicated. 3 μg of MMTV-CAT or MMTV-Luc was used as a reporter plasmid in all experiments. All values represent the averages+SD of four independent experiments.
284. To study the potential correlation between androgen and TGF-β in prostate cancer cells, the TGF-β responsive prostate cancer DU145 and PC-3 cells were chosen to examine the effect of TGF-β on androgen-induced mouse […] tumor virus (MMTV) promoter activity. […] Similar results were obtained with PC-3 cells, where AR-mediated transactivation was enhanced by TGF-β (FIG. 13B, lane 2 Vs 3-5) and suppressed by the TGF-β specific neutralizing antibody (FIG. 13B, lane 6 vs. 7-10), both in a dose-dependent manner (FIG. 13B).
294. […] The CAT activity was visualized and quantitated by STORM 840 (Molecular Dynamics). […]

[5] = target: T1, interaction between Smad3 and AR (Homo sapiens, UniProt P10275); assay: Mammalian two-hybrid assay Gal4-Smad3 / VP16-AR; assay type: cell-based; conditions: DU145
T1 construct: expressed in transfected cells; host or cells: DU145
T1 sequence (P10275 whole entry, the tested form may be a part): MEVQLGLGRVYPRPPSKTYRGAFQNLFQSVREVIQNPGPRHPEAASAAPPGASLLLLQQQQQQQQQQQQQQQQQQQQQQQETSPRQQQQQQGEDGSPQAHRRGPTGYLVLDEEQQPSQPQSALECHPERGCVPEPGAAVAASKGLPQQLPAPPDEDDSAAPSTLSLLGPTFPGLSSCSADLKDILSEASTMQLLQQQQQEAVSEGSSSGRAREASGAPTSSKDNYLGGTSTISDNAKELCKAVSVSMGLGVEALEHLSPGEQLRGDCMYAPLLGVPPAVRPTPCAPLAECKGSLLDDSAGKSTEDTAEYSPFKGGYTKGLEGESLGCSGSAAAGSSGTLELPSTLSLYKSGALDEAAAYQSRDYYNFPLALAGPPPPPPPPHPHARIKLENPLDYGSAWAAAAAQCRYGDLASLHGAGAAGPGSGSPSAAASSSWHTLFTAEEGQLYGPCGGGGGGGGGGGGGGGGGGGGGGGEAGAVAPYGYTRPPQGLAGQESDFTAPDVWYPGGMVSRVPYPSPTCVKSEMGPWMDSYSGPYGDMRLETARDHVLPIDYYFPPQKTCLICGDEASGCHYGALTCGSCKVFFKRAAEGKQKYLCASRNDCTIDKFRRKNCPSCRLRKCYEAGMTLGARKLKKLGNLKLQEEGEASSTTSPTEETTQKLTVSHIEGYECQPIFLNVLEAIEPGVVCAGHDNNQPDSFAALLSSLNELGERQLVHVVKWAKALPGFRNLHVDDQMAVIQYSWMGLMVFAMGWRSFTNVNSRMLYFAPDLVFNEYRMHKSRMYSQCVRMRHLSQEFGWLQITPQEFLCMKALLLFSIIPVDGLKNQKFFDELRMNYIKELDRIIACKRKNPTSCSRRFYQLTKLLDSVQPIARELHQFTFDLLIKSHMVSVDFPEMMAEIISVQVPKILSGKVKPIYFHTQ
T1 sequence (P84022 whole entry partner, the tested form may be a part): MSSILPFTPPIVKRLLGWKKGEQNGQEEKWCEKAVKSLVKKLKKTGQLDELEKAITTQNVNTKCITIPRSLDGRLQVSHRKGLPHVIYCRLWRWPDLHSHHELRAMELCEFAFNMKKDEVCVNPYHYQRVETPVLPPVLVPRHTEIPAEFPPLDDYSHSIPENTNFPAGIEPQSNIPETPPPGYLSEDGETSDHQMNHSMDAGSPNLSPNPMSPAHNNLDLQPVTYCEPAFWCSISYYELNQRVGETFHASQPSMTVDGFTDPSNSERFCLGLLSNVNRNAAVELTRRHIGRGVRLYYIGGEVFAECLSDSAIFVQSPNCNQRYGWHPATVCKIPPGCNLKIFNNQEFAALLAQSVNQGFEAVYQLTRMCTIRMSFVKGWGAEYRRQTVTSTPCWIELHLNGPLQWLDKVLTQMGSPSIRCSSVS

In the case of C[C@]12CC[C@@H]3c4ccc(O)cc4CC[C@H]3[C@@H]1CC[C@@H]2O [E2, 17-β estradiol], the “mtARt877a transactivation response to ligand” value [1] is given as “responded much better”, the “wtAR transactivation response to ligand” value ([1]; DHT 10 nM, HF 1 μM, E2 10 nM) is given as “respond marginally” and the “Stimulation of LNCaP mtARt877a” value [2] is given as “stimulated”.

In the case of CC(=O)[C@H]1CC[C@H]2[C@@H]3CCC4=CC(=O)CC[C@]4(C)[C@H]3CC[C@]12C [progesterone], the “Stimulation of LNCaP mtARt877a” value [2] is given as “stimulated”.

In the case of IGF-1: insulin-like growth factor-1, the “Akt activation (phospho-Akt S473)” value (Akt / AR phosphorylation; 100 ng/ml IGF-1 30 min) is reported as “Activation of Akt”, the “AR phosphorylation in vivo” value (Akt / AR phosphorylation; [32P] labeling) is reported as “strongly induced AR phosphorylation” and the “Effect on DHT/TPA-induced apoptosis” value (LNCaP cells; LNCaP cells stably transfected with dAkt) is reported as “only marginal suppressive effects”. The “Effect on DHT/TPA-induced apoptosis” value (LNCaP cells; LNCaP parent cells) was “partially repressed DHT/TPA-induced apoptosis” and the “Effect on androgen-induced apoptosis” value [3] was “repress androgen-induced apoptosis”.

For TGF-β: transforming growth factor β, the “Effect on AR-mediated transactivation” value ([4]; DU145, 10^−8 M DHT, TGF-β1 10 ng/ml) was “enhanced”, the “Effect on AR-mediated transactivation” value ([4]; PC-3, dose-dependent) was “enhanced” and the “Effect on Smad3-AR two-hybrid reporter gene activity” value ([5]; 10 nM DHT) was “further induced”. The “Effect on Smad3-AR two-hybrid reporter gene activity” value ([5]; absence of DHT) was “cannot exert this effect”.
